The text below walks through data of US10787451B2, “Crystalline form of GnRH receptor antagonist and preparation method therefor” (Jiangsu Hengrui Medicine Co., Ltd., priority 2016, dated 2020).

“Also recorded” adds a separate entry of the source.

The nature of data set [1]: Stability test of crystal forms spread flat in the air under lighting, heating and high humidity (HPLC purity, XRPD). It is filed as physicochemical. The following applies: for purity as detected by HPLC, 40° C.: heating 40° C.; for purity as detected by HPLC, 40° C. / purity as detected by HPLC, 60° C. / purity as detected by HPLC, RH 75% / purity as detected by HPLC, RH 90% / purity as detected by HPLC, Lighting: spread flat in the air; for purity as detected by HPLC, 60° C.: heating 60° C.; for purity as detected by HPLC, RH 75%: high humidity RH 75%; for purity as detected by HPLC, RH 90%: high humidity RH 90%; for purity as detected by HPLC, Lighting: lighting (4500 Lux). As to the method:
The product sample of crystal form I prepared in Example 1 and the product samples of crystal forms A, B, C and D prepared in Examples 12, 13, 14 and 15 were spread flat in the air to test sample stability under conditions of lighting (4500 Lux), heating (40° C., 60° C.), and high humidity (RH 75%, RH 90%). Samplings were carried out on Day 5 and Day 10.

A short description of data set [2]: Special stability study of crystal form I (grinding, heating, tableting; XRPD and DSC). Format: physicochemical. The method, then: 1. Differential Scanning Calorimeter, DSC
Instrument type: Mettler Toledo DSC 1 STAR^e System
Heating rate: 10.0° C./min
Temperature range: 40-300° C.
2. X-Ray Powder Diffraction, XRPD
Instrument type: Bruker D8 Focus X-ray powder diffractometer
Ray: monochromatic Cu-Kα ray (λ=1.5406)
Scanning mode: θ/2θ, Scanning range: 2-40°
Voltage: 40 kV, Electric current: 40 mA
The sample of crystal form I of the compound of formula (I) prepared according to the method of Example 1 was ground, heated and tableted.

On to `CONC(=O)Nc1ccc(-n2nc3c(c2CN(C)C)c(=O)n(-c2ccc(OC)nn2)c(=O)n3Cc2c(F)cccc2F)cc1` [Crystal form A, 1-(4-(7-(2,6-Difluorobenzyl)-3-((dimethylamino)methyl)-5-(6-methoxypyridazin-3-yl)-4,6-dioxo-4,5,6,7-tetrahydro-2H-pyrazolo[3,4-d]pyrimidin-2-yl)phenyl)-3-methoxy urea], for which, in data set [1] (Day 0), the “purity as detected by HPLC, 40° C.” value is on record as 97.86%; the “purity as detected by HPLC, 60° C.” value came out at 97.86%; the “purity as detected by HPLC, RH 75%” value is given as 97.86%; the “purity as detected by HPLC, RH 90%” value stood at 97.86%. Besides, the “purity as detected by HPLC, Lighting” value in data set [1] (Day 0) was determined as 97.86%. In addition, in data set [1] (Day 5), the “purity as detected by HPLC, 40° C.” value is listed as 97.50%; the “purity as detected by HPLC, 60° C.” value came out at 97.62%; the “purity as detected by HPLC, RH 75%” value is on record as 97.61%; the “purity as detected by HPLC, RH 90%” value was found to be 97.59%. Moreover, the “purity as detected by HPLC, Lighting” value in data set [1] (Day 5) was 97.27%. Moreover, in data set [1] (Day 10), the “purity as detected by HPLC, 40° C.” value came to 97.52%; the “purity as detected by HPLC, 60° C.” value is 97.50%; the “purity as detected by HPLC, RH 75%” value is reported as 97.65%; the “purity as detected by HPLC, RH 90%” value is 97.79%. Besides, in data set [1] (Day 10), the “purity as detected by HPLC, Lighting” value is on record as 97.13%.
On to `CONC(=O)Nc1ccc(-n2nc3c(c2CN(C)C)c(=O)n(-c2ccc(OC)nn2)c(=O)n3Cc2c(F)cccc2F)cc1` [Crystal form B, 1-(4-(7-(2,6-Difluorobenzyl)-3-((dimethylamino)methyl)-5-(6-methoxypyridazin-3-yl)-4,6-dioxo-4,5,6,7-tetrahydro-2H-pyrazolo[3,4-d]pyrimidin-2-yl)phenyl)-3-methoxy urea], for which, in data set [1] (Day 0), the “purity as detected by HPLC, 40° C.” value came to 99.69%; the “purity as detected by HPLC, 60° C.” value came out at 99.69%; the “purity as detected by HPLC, RH 75%” value is on record as 99.69%; the “purity as detected by HPLC, RH 90%” value worked out at 99.69%. Moreover, in data set [1] (Day 0), the “purity as detected by HPLC, Lighting” value was 99.69%. Besides, in data set [1] (Day 5), the “purity as detected by HPLC, 40° C.” value is 99.45%; the “purity as detected by HPLC, 60° C.” value came out at 99.45%; the “purity as detected by HPLC, RH 75%” value amounted to 99.52%; the “purity as detected by HPLC, RH 90%” value is given as 99.47%. Further, the “purity as detected by HPLC, Lighting” value in data set [1] (Day 5) was 99.39%. In data set [1] (Day 10), the “purity as detected by HPLC, 40° C.” value is 99.03%; the “purity as detected by HPLC, 60° C.” value was found to be 99.34%; the “purity as detected by HPLC, RH 75%” value amounted to 99.34%; the “purity as detected by HPLC, RH 90%” value was determined as 99.34%. Moreover, in data set [1] (Day 10), the “purity as detected by HPLC, Lighting” value turned out to be 99.19%.
As for `CONC(=O)Nc1ccc(-n2nc3c(c2CN(C)C)c(=O)n(-c2ccc(OC)nn2)c(=O)n3Cc2c(F)cccc2F)cc1` [Crystal form C, 1-(4-(7-(2,6-Difluorobenzyl)-3-((dimethylamino)methyl)-5-(6-methoxypyridazin-3-yl)-4,6-dioxo-4,5,6,7-tetrahydro-2H-pyrazolo[3,4-d]pyrimidin-2-yl)phenyl)-3-methoxy urea], in data set [1] (Day 0), the “purity as detected by HPLC, 40° C.” value is reported as 99.75%; the “purity as detected by HPLC, 60° C.” value was found to be 99.75%; the “purity as detected by HPLC, RH 75%” value is given as 99.75%; the “purity as detected by HPLC, RH 90%” value is on record as 99.75%. Moreover, the “purity as detected by HPLC, Lighting” value in data set [1] (Day 0) was 99.75%. For the same compound, in data set [1] (Day 5), the “purity as detected by HPLC, 40° C.” value was determined as 99.57%; the “purity as detected by HPLC, 60° C.” value is on record as 99.53%; the “purity as detected by HPLC, RH 75%” value was 99.51%; the “purity as detected by HPLC, RH 90%” value is recorded as 99.54%. Moreover, the “purity as detected by HPLC, Lighting” value in data set [1] (Day 5) turned out to be 98.30%. In data set [1] (Day 10), the “purity as detected by HPLC, 40° C.” value was found to be 99.35%; the “purity as detected by HPLC, 60° C.” value was found to be 99.47%; the “purity as detected by HPLC, RH 75%” value amounted to 99.48%; the “purity as detected by HPLC, RH 90%” value is 99.38%. The “purity as detected by HPLC, Lighting” value in data set [1] (Day 10) was 96.83%.
As for `CONC(=O)Nc1ccc(-n2nc3c(c2CN(C)C)c(=O)n(-c2ccc(OC)nn2)c(=O)n3Cc2c(F)cccc2F)cc1` [Crystal form D, 1-(4-(7-(2,6-Difluorobenzyl)-3-((dimethylamino)methyl)-5-(6-methoxypyridazin-3-yl)-4,6-dioxo-4,5,6,7-tetrahydro-2H-pyrazolo[3,4-d]pyrimidin-2-yl)phenyl)-3-methoxy urea], in data set [1] (Day 0), the “purity as detected by HPLC, 40° C.” value is recorded as 99.67%; the “purity as detected by HPLC, 60° C.” value stood at 99.67%; the “purity as detected by HPLC, RH 75%” value came to 99.67%; the “purity as detected by HPLC, RH 90%” value is on record as 99.67%. In addition, in data set [1] (Day 0), the “purity as detected by HPLC, Lighting” value is recorded as 99.67%. Also, in data set [1] (Day 5), the “purity as detected by HPLC, 40° C.” value is on record as 99.44%; the “purity as detected by HPLC, 60° C.” value turned out to be 99.48%; the “purity as detected by HPLC, RH 75%” value is given as 99.57%; the “purity as detected by HPLC, RH 90%” value was 99.57%. The “purity as detected by HPLC, Lighting” value in data set [1] (Day 5) was 99.43%. In data set [1] (Day 10), the “purity as detected by HPLC, 40° C.” value is 99.31%; the “purity as detected by HPLC, 60° C.” value is recorded as 99.40%; the “purity as detected by HPLC, RH 75%” value was determined as 99.34%; the “purity as detected by HPLC, RH 90%” value was determined as 99.39%. Further, the “purity as detected by HPLC, Lighting” value in data set [1] (Day 10) is 99.22%.
Take `CONC(=O)Nc1ccc(-n2nc3c(c2CN(C)C)c(=O)n(-c2ccc(OC)nn2)c(=O)n3Cc2c(F)cccc2F)cc1` [Crystal form I, 1-(4-(7-(2,6-difluorobenzyl)-3-((dimethylamino)methyl)-5-(6-methoxypyridazin-3-yl)-4,6-dioxo-4,5,6,7-tetrahydro-2H-pyrazolo[3,4-d]pyrimidin-2-yl)phenyl)-3-methoxyurea]: in data set [1] (Day 0), the “purity as detected by HPLC, 40° C.” value came out at 99.36%; the “purity as detected by HPLC, 60° C.” value worked out at 99.36%; the “purity as detected by HPLC, RH 75%” value amounted to 99.36%; the “purity as detected by HPLC, RH 90%” value was 99.36%. Also, the “purity as detected by HPLC, Lighting” value in data set [1] (Day 0) amounted to 99.36%. Also, in data set [1] (Day 5), the “purity as detected by HPLC, 40° C.” value is 99.33%; the “purity as detected by HPLC, 60° C.” value was determined as 99.24%; the “purity as detected by HPLC, RH 75%” value worked out at 99.22%; the “purity as detected by HPLC, RH 90%” value is on record as 99.27%. For the same compound, the “purity as detected by HPLC, Lighting” value in data set [1] (Day 5) is listed as 99.26%. For the same compound, in data set [1] (Day 10), the “purity as detected by HPLC, 40° C.” value is recorded as 99.41%; the “purity as detected by HPLC, 60° C.” value stood at 99.30%; the “purity as detected by HPLC, RH 75%” value is 99.31%; the “purity as detected by HPLC, RH 90%” value turned out to be 99.27%. Besides, the “purity as detected by HPLC, Lighting” value in data set [1] (Day 10) was found to be 99.20%. Further, the “crystal form by XRPD test after exposure” value in data set [1] (lighting, high humidity and high temperature, spread in the air) is “not changed; also recorded: unchanged”. In data set [1] (lighting, high humidity and high temperature, decrease of HPLC purity), the “stability compared with crystal forms A, B, C and D” value was “significantly better”. In data set [2] (after grinding treatment for 10 minutes), the DSC peak was 166.16 °C. Moreover, the DSC peak in data set [2] (after heating treatment for 3 hours at 80° C.) came to 168.36 °C. The DSC peak in data set [2] (after tableting treatment) amounted to 168.97 °C. In addition, the “crystal form during grinding, heating and tableting procedure” value in data set [2] (grinding, heating and tableting) was “not changed”.
